Data taken from patent US9956204B2, “Composition for exterminating scuticociliates in fish including mebendazole” (NATIONAL INSTITUTE OF FISHERIES SCIENCE, priority 2016, dated 2018).

How the values were obtained:
scuticociliates [1] = experiment: Scuticociliates extermination effect of candidate substances in MEM medium; assay type: cell-based
Description: CHSE-214 cell line into which scuticociliates were inoculated was cultured in advance. The CHSE-214 cell line was cultured in an incubator using an MEM medium at 22° C. Scuticociliates inoculated into the cell line proliferated for 3 days by which the number reaches to be capable of analyzing in vitro anti-scuticociliates effect. Scuticociliates that feed on the cell line and sufficiently grow were mixed with the candidate substance and the activity of scuticociliates was measured.
In order to analyze the antiparasitic activity of the above 19 types of candidate substances of scuticociliates extermination drugs, scuticociliates were cultured for 3 days, and 100 μl (1×10^5) was dispensed into each well of 96 wells. The candidate substances were diluted by each concentration and the final volume was dispensed into 100 μl. Thereafter, the two were mixed and finally made into 200 μl.

scuticociliates [2] = experiment: Scuticociliates extermination effect of candidate substances in seawater medium; assay type: cell-based
Description: For this, scuticociliates were cultured in CHSE-214 cell line (using MEM medium), and then scuticociliates were collected and centrifuged with sterilized seawater or artificial seawater (20‰) to replace them with a seawater medium. Each of 100 μl (1×10^5) was dispensed into each well of 96 wells, followed by further culture for 30 minutes. The candidate substances diluted in seawater to have a volume of 100 μl per each concentration were mixed with scuticociliates to have the final volume of 200 μl and cultured for 4 hour.

[3] = seawater medium, 4 hour, Dosage 500 ppm
[4] = seawater medium, 4 hour, Dosage 1000 ppm
[5] = seawater medium, 4 hour, Dosage 1500 ppm
[6] = seawater medium, 4 hour, Dosage 2000 ppm
[7] = seawater medium, 4 hour, Dosage 2500 ppm
[8] = seawater medium, 4 hour, Dosage 3000 ppm
[9] = seawater medium, 4 hour, Dosage 3500 ppm
[10] = seawater medium, 4 hour, Dosage 4000 ppm

| SMILES | Survival or Death of scuticociliates (activity and shape, microscope) (scuticociliates [1]; MEM medium, Dosage 500 ppm) | Survival or Death of scuticociliates (activity and shape, microscope) (scuticociliates [1]; MEM medium, Dosage 1000 ppm) | Survival or Death of scuticociliates (activity and shape, microscope) (scuticociliates [1]; MEM medium, Dosage 1500 ppm) | Survival or Death of scuticociliates (activity and shape, microscope) (scuticociliates [1]; MEM medium, Dosage 2000 ppm) | Survival or Death of scuticociliates (activity and shape, microscope) (scuticociliates [1]; MEM medium, Dosage 2500 ppm) | Survival or Death of scuticociliates (activity and shape, microscope) (scuticociliates [1]; MEM medium, Dosage 3000 ppm) | Survival or Death of scuticociliates (activity and shape, microscope) (scuticociliates [1]; MEM medium, Dosage 3500 ppm) | Survival or Death of scuticociliates (activity and shape, microscope) (scuticociliates [1]; MEM medium, Dosage 4000 ppm) | Survival or Death of scuticociliates (activity and shape, microscope) (scuticociliates [2]; [3]) | Survival or Death of scuticociliates (activity and shape, microscope) (scuticociliates [2]; [4]) | Survival or Death of scuticociliates (activity and shape, microscope) (scuticociliates [2]; [5]) | Survival or Death of scuticociliates (activity and shape, microscope) (scuticociliates [2]; [6]) | Survival or Death of scuticociliates (activity and shape, microscope) (scuticociliates [2]; [7]) | Survival or Death of scuticociliates (activity and shape, microscope) (scuticociliates [2]; [8]) | Survival or Death of scuticociliates (activity and shape, microscope) (scuticociliates [2]; [9]) | Survival or Death of scuticociliates (activity and shape, microscope) (scuticociliates [2]; [10]) | also measured |
| --- | --- | --- | --- | --- | --- | --- | --- | --- | --- | --- | --- | --- | --- | --- | --- | --- | --- |
| CC[C@H](C)[C@H]1O[C@]2(CC[C@@H]1C)C[C@@H]1C[C@@H](C/C=C(\C)[C@@H](O[C@H]3C[C@H](OC)[C@@H](O[C@H]4C[C@H](OC)[C@@H](O)[C@H](C)O4)[C@H](C)O3)[C@@H](C)/C=C/C=C3\CO[C@@H]4[C@H](O)C(C)=C[C@@H](C(=O)O1)[C@]34O)O2 [Ivermectin] | Survival | Survival | Survival | Survival | Survival | Survival | Survival | Survival | Survival | Survival | Survival | Survival | Survival | Survival | Survival | Survival |  |
| c1ccc([C@H]2CN3CCSC3=N2)cc1 [Levamisol] | Survival | Survival | Survival | Survival | Survival | Survival | Survival | Survival | Survival | Survival | Survival | Survival | Survival | Survival | Survival | Survival |  |
| COC(=O)Nc1nc2ccc([S+]([O-])c3ccccc3)cc2[nH]1 (stereo not shown) [Oxfendazole] | Survival | Death |  |  |  |  |  |  | Survival | Death |  |  |  |  |  |  | Survival or Death of scuticociliates (activity and shape, microscope) (scuticociliates [1]; MEM medium, Dosage 10 ppm): Survival; Survival or Death of scuticociliates (activity and shape, microscope) (scuticociliates [1]; MEM medium, Dosage 50 ppm): Survival; Survival or Death of scuticociliates (activity and shape, microscope) (scuticociliates [1]; MEM medium, Dosage 100 ppm): Survival; Survival or Death of scuticociliates (activity and shape, microscope) (scuticociliates [1]; MEM medium, Dosage 200 ppm): Survival; Survival or Death of scuticociliates (activity and shape, microscope) (scuticociliates [1]; MEM medium, Dosage 300 ppm): Survival; Survival or Death of scuticociliates (activity and shape, microscope) (scuticociliates [1]; MEM medium, Dosage 400 ppm): Survival; Survival or Death of scuticociliates (activity and shape, microscope) (scuticociliates [1]; MEM medium, Dosage 600 ppm): Survival; Survival or Death of scuticociliates (activity and shape, microscope) (scuticociliates [1]; MEM medium, Dosage 700 ppm): Δ; Survival or Death of scuticociliates (activity and shape, microscope) (scuticociliates [1]; MEM medium, Dosage 800 ppm): Δ; Survival or Death of scuticociliates (activity and shape, microscope) (scuticociliates [1]; MEM medium, Dosage 900 ppm): Δ; Survival or Death of scuticociliates (activity and shape, microscope) (scuticociliates [2]; seawater medium, 4 hour, Dosage 10 ppm): Survival; Survival or Death of scuticociliates (activity and shape, microscope) (scuticociliates [2]; seawater medium, 4 hour, Dosage 50 ppm): Survival; Survival or Death of scuticociliates (activity and shape, microscope) (scuticociliates [2]; seawater medium, 4 hour, Dosage 100 ppm): Survival; Survival or Death of scuticociliates (activity and shape, microscope) (scuticociliates [2]; seawater medium, 4 hour, Dosage 200 ppm): Survival; Survival or Death of scuticociliates (activity and shape, microscope) (scuticociliates [2]; seawater medium, 4 hour, Dosage 300 ppm): Survival; Survival or Death of scuticociliates (activity and shape, microscope) (scuticociliates [2]; seawater medium, 4 hour, Dosage 400 ppm): Survival; Survival or Death of scuticociliates (activity and shape, microscope) (scuticociliates [2]; seawater medium, 4 hour, Dosage 600 ppm): Survival; Survival or Death of scuticociliates (activity and shape, microscope) (scuticociliates [2]; seawater medium, 4 hour, Dosage 700 ppm): Δ; Survival or Death of scuticociliates (activity and shape, microscope) (scuticociliates [2]; seawater medium, 4 hour, Dosage 800 ppm): Δ; Survival or Death of scuticociliates (activity and shape, microscope) (scuticociliates [2]; seawater medium, 4 hour, Dosage 900 ppm): Δ |
| CCCOc1ccc2nc(NC(=O)OC)[nH]c2c1 [Oxibendazole] | Survival | Survival | Δ | Δ | Death | Death | Death | Death | Survival | Survival | Δ | Δ | Δ | Δ | Death | Death |  |
| C1CNCCN1 [Piperazine] | Survival | Survival | Survival | Survival | Survival | Survival | Survival | Survival | Survival | Survival | Survival | Survival | Survival | Survival | Survival | Survival |  |
| CN1CCCN=C1/C=C/c1cccs1 [Pyrantel] | Survival | Survival | Survival | Survival | Survival | Survival | Survival | Survival | Survival | Survival | Survival | Survival | Survival | Survival | Survival | Survival |  |
| CO[C@H]1C[C@H](O[C@@H]2/C(C)=C/C[C@@H]3C[C@@H](C[C@]4(CC[C@H](C)[C@@H](C5CCCCC5)O4)O3)OC(=O)[C@@H]3C=C(C)/C(=N/O)[C@H]4OC/C(=C\C=C\[C@@H]2C)[C@]43O)O[C@@H](C)[C@@H]1O [Selamectin] |  |  |  |  |  |  |  |  |  |  |  |  |  |  |  |  | Survival or Death of scuticociliates (activity and shape, microscope) (scuticociliates [1]): Survival and Δ and Death; Survival or Death of scuticociliates (activity and shape, microscope) (scuticociliates [2]): Survival and Δ and Death |
